The values that follow come from ChEMBL document CHEMBL1201862, “PubChem BioAssay data set” (2004).

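Five compound concentrations were applied to cells in 96-well plates for 48 hours; endpoints were derived by simple linear interpolation of the resulting dose-response curve. Abbreviation: GI50, concentration required for 50% inhibition of growth.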 The source made the active and inactive calls. Cut-off read from the data, not from the text of the source: active = GI50 up to about 1.1 µM and inactive = higher.

Among the test systems are U-251; HOP-62; SNB-19; SF-295; UACC-62; NCI-H460; RPMI-8226; IGROV-1; DU-145; UACC-257; COLO 205; OVCAR-8; SNB-75; K562; SF-268; HL-60; T47D; NCI-H226; OVCAR-4.
Test in all cases: growth of human tumour cells (NCI), 48 h

Turning to `O=[N+]([O-])c1ccc2sc(/C=N/c3cnccn3)cc2c1`, the GI50 in the assay with U-251 was 20.9 µM (inactive); in the assay on HOP-62, 29.1 µM (inactive); with SNB-19 it was 65 µM (inactive); with SF-295, 35.4 µM (inactive); in the assay with UACC-62, 17.1 µM (inactive); in the assay on NCI-H460, 31 µM (inactive). Also, the GI50 with RPMI-8226 was 16 µM (inactive); in the assay with IGROV-1, 58.3 µM (inactive); in the assay with DU-145 it was 21.5 µM (inactive); in the assay on UACC-257, 27.8 µM (inactive); in the assay on COLO 205, 39.8 µM (inactive); with OVCAR-8, 45.4 µM (inactive). The GI50 was 0.861 µM (active) in the assay on SNB-75; 21.4 µM (inactive) with K562; 27.2 µM (inactive) with SF-268; 14.2 µM (inactive) with HL-60; 0.714 µM (active) with T47D.

As to `COc1cc(OC)c2c(=O)c(OC)c(-c3ccc4c(c3)OCO4)oc2c1`, the GI50 in the assay on U-251 is 16.6 µM (inactive); with HOP-62, 23.5 µM (inactive); in the assay with SNB-19, 22 µM (inactive); with SF-295, 22.2 µM (inactive); in the assay with NCI-H226, 46.3 µM (inactive); with UACC-62 it was 26 µM (inactive). For the same compound, the GI50 with NCI-H460 was > 100 µM (inactive); in the assay on OVCAR-4 it was > 100 µM (inactive); in the assay with IGROV-1, 22.1 µM (inactive); in the assay on DU-145 it was 48.5 µM (inactive); in the assay on UACC-257 it was > 100 µM (inactive); with COLO 205, > 100 µM (inactive). Also, the GI50 with OVCAR-8 was 28.6 µM (inactive); in the assay with SNB-75 it was 15.9 µM (inactive); in the assay on K562, > 100 µM (inactive); in the assay with SF-268, 20.7 µM (inactive); with HL-60, 20.9 µM (inactive); in the assay with T47D, 23.1 µM (inactive).

Consider `Cc1cn(CC2=NCC(C)N2)c(=O)[nH]c1=O` (configuration not stated), for which the GI50 in the assay on U-251, in the assay on HOP-62, with SNB-19, in the assay with SF-295, in the assay with NCI-H226 and in the assay with UACC-62 was > 100 µM (inactive) in each case. Also, the GI50 with NCI-H460, in the assay with RPMI-8226, in the assay on IGROV-1, in the assay with DU-145, in the assay on UACC-257 and in the assay with COLO 205 was > 100 µM (inactive) in each case. The GI50 with OVCAR-8, in the assay with SNB-75, with K562, in the assay with SF-268 and with T47D was > 100 µM (inactive) in each case.

On to `Cc1ccc(/N=N/c2c(O)ccc3ccccc23)cc1`, for which the GI50 in the assay with U-251 was 53.6 µM (inactive); in the assay on HOP-62, 82 µM (inactive); in the assay with SNB-19 it was 95.7 µM (inactive); in the assay on SF-295, > 100 µM (inactive); in the assay with NCI-H226, > 100 µM (inactive); in the assay with UACC-62, > 100 µM (inactive). Also, the GI50 in the assay on RPMI-8226 is 99.3 µM (inactive); in the assay on OVCAR-4, > 100 µM (inactive); in the assay with IGROV-1, > 100 µM (inactive); in the assay with DU-145 it was > 100 µM (inactive); in the assay with UACC-257 it was > 100 µM (inactive); with COLO 205, > 100 µM (inactive). For the same compound, the GI50 in the assay on OVCAR-8 is > 100 µM (inactive); in the assay on SNB-75, > 100 µM (inactive); with K562, > 10 µM (inactive); with SF-268, > 100 µM (inactive); in the assay with T47D it was > 100 µM (inactive).

With `CC(=O)NC(C)(C)C1CCC(C)=C(c2ccccc2)C1` (configuration not stated), the GI50 in the assay on U-251 was 80 µM (inactive); in the assay with HOP-62, > 100 µM (inactive); with SNB-19, > 100 µM (inactive); in the assay with SF-295, > 100 µM (inactive); with UACC-62 it was > 100 µM (inactive); in the assay with NCI-H460, > 100 µM (inactive). Moreover, the GI50 with OVCAR-4, in the assay on IGROV-1, in the assay with DU-145, with UACC-257, in the assay on COLO 205 and in the assay on OVCAR-8 was > 100 µM (inactive) throughout. In addition, the GI50 is 53.6 µM (inactive) in the assay with SNB-75; 42 µM (inactive) with K562; > 100 µM (inactive) in the assay with SF-268; 31.1 µM (inactive) in the assay on HL-60; > 100 µM (inactive) with T47D.

For `O=C1Nc2ccccc2C1=Nc1ccc(S(=O)(=O)Nc2nccs2)cc1`, the GI50 in the assay on U-251, with HOP-62, in the assay with SNB-19, in the assay on SF-295, in the assay on NCI-H226 and in the assay on UACC-62 was > 100 µM (inactive) each time. Moreover, the GI50 with NCI-H460, with OVCAR-4, in the assay with IGROV-1, with DU-145, with UACC-257 and in the assay with COLO 205 was > 100 µM (inactive) in each case. In addition, the GI50 in the assay on OVCAR-8, in the assay on SNB-75, with K562, in the assay with SF-268, in the assay on HL-60 and in the assay on T47D was > 100 µM (inactive) in each case.

Regarding `C(=C\c1ccccc1)/Cn1nc(-c2ccccc2)nc1-c1cnccn1`, the GI50 with U-251, in the assay with HOP-62, in the assay on SNB-19, in the assay on SF-295, in the assay on UACC-62 and in the assay with NCI-H460 was > 100 µM (inactive) each time. Also, the GI50 in the assay on RPMI-8226 was > 100 µM (inactive); in the assay on OVCAR-4, 68.9 µM (inactive); with IGROV-1, > 100 µM (inactive); in the assay on DU-145, > 100 µM (inactive); in the assay with UACC-257 it was > 100 µM (inactive); with COLO 205, > 100 µM (inactive). In addition, the GI50 was > 100 µM (inactive) in the assay on OVCAR-8; 18.7 µM (inactive) in the assay with SNB-75; > 100 µM (inactive) with K562; > 100 µM (inactive) in the assay with SF-268; > 100 µM (inactive) with HL-60; > 100 µM (inactive) in the assay with T47D.

As for `CCOC(=O)CC(=O)Nc1cccc2sc3ncccc3c(=O)c12`, the GI50 with U-251 was 32.6 µM (inactive); in the assay with HOP-62, 33 µM (inactive); in the assay with SNB-19, 51.3 µM (inactive); with SF-295 it was 43.5 µM (inactive); with NCI-H226 it was 27.9 µM (inactive); with UACC-62, 31.7 µM (inactive). Further, the GI50 in the assay on NCI-H460 is 19.5 µM (inactive); in the assay with RPMI-8226, 35.6 µM (inactive); in the assay with OVCAR-4, 83.2 µM (inactive); in the assay on IGROV-1 it was > 10 µM (inactive); in the assay with DU-145, 84.9 µM (inactive); in the assay with UACC-257, > 100 µM (inactive). Moreover, the GI50 with COLO 205 is 68.2 µM (inactive); in the assay on OVCAR-8 it was 52.4 µM (inactive); in the assay on SNB-75 it was 12.9 µM (inactive); in the assay with K562 it was 20.6 µM (inactive); in the assay on SF-268, 36.2 µM (inactive); in the assay with T47D it was 3.95 µM (inactive).

As to `Cc1ccc(C(=O)/C=C2\Nc3ccccc3S\C2=N\CS(=O)(=O)c2ccc(C)cc2)cc1`, the GI50 with U-251 is > 10 µM (inactive); with HOP-62, 7.8 µM (inactive); in the assay on SNB-19, > 10 µM (inactive); in the assay on SF-295 it was > 10 µM (inactive); in the assay with UACC-62 it was > 10 µM (inactive); in the assay with RPMI-8226, > 10 µM (inactive). Moreover, the GI50 with OVCAR-4 is 4.02 µM (inactive); in the assay with IGROV-1, > 10 µM (inactive); in the assay on DU-145 it was > 10 µM (inactive); in the assay with UACC-257 it was > 10 µM (inactive); with COLO 205, > 10 µM (inactive); in the assay with OVCAR-8, > 10 µM (inactive). For the same compound, the GI50 is > 10 µM (inactive) with SNB-75; > 10 µM (inactive) with K562; > 10 µM (inactive) in the assay with SF-268; 7.41 µM (inactive) in the assay with HL-60; 8.2 µM (inactive) with T47D.

For `O=C(O)c1ccc2c(O)c(O)ccc2c1`, the GI50 with U-251 is 19.9 µM (inactive); in the assay with HOP-62, 20.7 µM (inactive); in the assay on SNB-19 it was 18.8 µM (inactive); in the assay with SF-295, 15.2 µM (inactive); in the assay on NCI-H226 it was 18.7 µM (inactive); in the assay with UACC-62, > 10 µM (inactive). Also, the GI50 is 15.4 µM (inactive) in the assay on RPMI-8226; 21.5 µM (inactive) in the assay with OVCAR-4; 19.7 µM (inactive) in the assay on IGROV-1; 39.8 µM (inactive) in the assay with DU-145; 21.1 µM (inactive) in the assay with UACC-257; 26.2 µM (inactive) with COLO 205. Moreover, the GI50 in the assay with OVCAR-8 is 20 µM (inactive); in the assay on SNB-75, 10.4 µM (inactive); in the assay with K562, 7.8 µM (inactive); with SF-268, 8.47 µM (inactive); in the assay with T47D, 45.4 µM (inactive).

On to `O=C(O)CC(NC(=O)Nc1ccc([N+](=O)[O-])cc1)C(=O)Nc1ccc([N+](=O)[O-])cc1` (configuration not stated), for which the GI50 is > 100 µM (inactive) in the assay with U-251; > 100 µM (inactive) with HOP-62; > 100 µM (inactive) in the assay on SNB-19; > 100 µM (inactive) in the assay with SF-295; > 100 µM (inactive) with NCI-H226; 0.69 µM (active) in the assay with UACC-62. In addition, the GI50 with NCI-H460, in the assay on RPMI-8226, in the assay on OVCAR-4, in the assay with IGROV-1, in the assay with DU-145 and with UACC-257 was > 100 µM (inactive) throughout. Further, the GI50 with COLO 205 is > 100 µM (inactive); in the assay with OVCAR-8 it was > 100 µM (inactive); in the assay with SNB-75 it was > 100 µM (inactive); with K562, > 100 µM (inactive); in the assay on SF-268 it was 9.44 µM (inactive); in the assay on T47D it was > 100 µM (inactive).
